Legend:
[1] = target: T1, 3-hydroxy-3-methylglutaryl-CoA reductase (Rattus norvegicus, UniProt P51639); test: inhibition of 3-hydroxy-3-methylglutaryl-CoA reductase activity (method of Kuroda et al.); format: biochemical; settings: concentration for 50% inhibition of 3-hydroxy-3-methylglutaryl-CoA reductase activity
T1 construct: from tissue
T1 sequence (P51639 1-887): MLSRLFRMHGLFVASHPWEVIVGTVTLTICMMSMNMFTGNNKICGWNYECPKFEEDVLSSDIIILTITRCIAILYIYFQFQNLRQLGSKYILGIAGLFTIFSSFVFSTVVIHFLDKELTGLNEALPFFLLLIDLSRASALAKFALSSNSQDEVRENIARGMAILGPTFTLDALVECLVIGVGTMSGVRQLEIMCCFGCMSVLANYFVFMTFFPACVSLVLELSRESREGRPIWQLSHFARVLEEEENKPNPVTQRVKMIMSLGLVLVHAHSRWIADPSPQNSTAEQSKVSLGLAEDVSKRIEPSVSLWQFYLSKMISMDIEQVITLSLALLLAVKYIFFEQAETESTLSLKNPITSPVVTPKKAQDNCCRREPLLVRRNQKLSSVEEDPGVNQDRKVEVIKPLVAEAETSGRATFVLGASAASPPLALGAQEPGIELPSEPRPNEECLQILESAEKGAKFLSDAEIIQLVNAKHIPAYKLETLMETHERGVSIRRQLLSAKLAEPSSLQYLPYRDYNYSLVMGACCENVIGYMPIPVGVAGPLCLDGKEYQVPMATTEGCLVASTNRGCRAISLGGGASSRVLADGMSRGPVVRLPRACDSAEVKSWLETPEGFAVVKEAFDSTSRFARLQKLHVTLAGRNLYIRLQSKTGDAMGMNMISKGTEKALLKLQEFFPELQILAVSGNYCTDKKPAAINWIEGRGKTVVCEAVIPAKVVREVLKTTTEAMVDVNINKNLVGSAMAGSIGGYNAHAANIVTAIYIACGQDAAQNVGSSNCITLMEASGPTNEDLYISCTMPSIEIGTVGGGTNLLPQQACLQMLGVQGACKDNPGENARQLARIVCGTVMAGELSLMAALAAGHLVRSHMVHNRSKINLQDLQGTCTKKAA
Protocol: The biosynthesis of cholesterol in an isolated enzymatic system or in a cell culture from organs removed from experimental animals is inhibited by limiting the activity of the enzyme 3-hydroxy-3-methylglutaryl-CoA reductase.
The inhibitory activity of the products according to the present invention was determined by the method of Kuroda et al. (Biochemica et Biophysica Acta, vol. 486, pp. 70-81 (1977)), which is a modification of the method of Shapiro et al. (Analytical Biochemistry, vol. 31, pp. 383-390 (1969)). The results are summarized in Table II, where IC50 is the concentration of product in the experimental medium which is necessary to achieve a 50% inhibition of the 3-hydroxy-3-methylglutaryl-CoA reductase activity, expressed in nanomol.

[2] = system: hyperlipidaemia caused by TRITON 1339; test: test for the hyperlipidaemia caused by TRITON 1339; format: in vivo; settings: rats, Triton test after oral administration for six days, 0.5 millimol per kilogram; for HDL cholesterol: Control 0.7 ± 0.1, Triton 0.8 ± 0.1; for Triglycerides: Control 1 ± 0.3, Triton 10 ± 7; for Total cholesterol: Control 2 ± 0.15, Triton 9 ± 3; for Total lipids: Control 3.5 ± 0.4, Triton 20 ± 10
Protocol: The Table below summarizes the results of the pharmacological studies carried out especially by means of the test for the hyperlipidaemia caused by TRITON 1339. The experimental protocol was that published by J. C. […] et al. (Gaz. Med. France, 3rd inter. coll. 1982, Dijon, 18-22). The tests are performed on groups of 7 rats weighing from 280 to 290 g. The Triton test is carried out after oral administration for six days at a rate of 0.5 millimol per kilogram of body weight. The following lipid parameters are measured: total cholesterol, triglycerides, total lipids and HDL cholesterol.

HMG-CoA red. = HMG-CoA red. activity "ex vivo" in liver microsomes after chronic intraperitoneal administration to rats; design: Mevalonate formed: unit not given here; settings: 50 mg/kg for 6 days; for Mevalonate formed: Control 17; for % inhibition: inhibition of HMG-CoA red. activity, Control 0
Protocol: The inhibitory activity of the products according to the present invention was determined by the method of Kuroda et al. (Biochemica et Biophysica Acta, vol. 486, pp. 70-81 (1977)), which is a modification of the method of Shapiro et al. (Analytical Biochemistry, vol. 31, pp. 383-390 (1969)). […] The doses administered were 50 mg/kg for 6 days; six rats were used in each series; they are sacrificed without anaesthesia and the liver microsomes are isolated for the assay, which is performed according to the above-mentioned protocol.

IC50 [1] [µM] | SMILES | HDL cholesterol [2] [mmol/L] | Triglycerides [2] [mmol/L] | Total cholesterol [2] [mmol/L] | Total lipids [2] [g/L] | Mevalonate formed (HMG-CoA red.) | % inhibition (HMG-CoA red.) [%]
0.0425 | C[C@H]1C[C@H](OC(=O)C(C)(C)Oc2ccc(-c3ccccc3)cc2)CC(C)(C)C1 (relative stereo) [Example 7, (TRANS) 3,3,5-TRIMETHYLCYCLOHEXYL 2-(4-PHENYLPHENOXY)-2-METHYLPROPIONATE] | 1.5 ± 0.4 | 1.1 ± 0.5 | 2.2 ± 0.4 | 3.0 ± 0.5 |  | 
 | C[C@H]1C[C@H](OC(=O)C(C)(C)Oc2ccc(C(=O)Cc3ccccc3)cc2)CC(C)(C)C1 (relative stereo) [Example 17, (TRANS) 3,3,5-TRIMETHYLCYCLOHEXYL 2-(4-PHENYLACETYLPHENOXY)-2-METHYLPROPIONATE] |  |  |  |  | 8.66 | 50
 | Cc1ccc(OCCCCC(C)(C)C(=O)O[C@H]2C[C@@H](C)CC(C)(C)C2)c(C)c1 (relative stereo) [Example 21, (CIS) 3,3,5-TRIMETHYLCYCLOHEXYL 2-(4-(2,4-DIMETHYLPHENOXY)BUTYL)-2-METHYLPROPIONATE] |  |  |  |  | 3.8 | 78
 | CC(=O)c1cccc(OC(C)(C)C(=O)O[C@H]2C[C@@H](C)CC(C)(C)C2)c1 (relative stereo) [Example 14, (CIS) 3,3,5-TRIMETHYLCYCLOHEXYL 2-(3-ACETYLPHENOXY)-2-METHYLPROPIONATE] | 2.1 ± 0.1 | 6.0 ± 3.0 | 3.0 ± 0.3 | 4.8 ± 0.6 |  | 
 | C[C@H]1C[C@H](OC(=O)C(C)(C)CCCCOc2ccccc2)CC(C)(C)C1 (relative stereo) [Example 19, (TRANS) 3,3,5-TRIMETHYLCYCLOHEXYL 2-(4-PHENOXYBUTYL)- 2-METHYLPROPIONATE] |  |  |  |  | 5.2 | 70
0.0329 | C[C@@H]1C[C@H](OC(=O)C(C)(C)Oc2ccc(C(=O)Cc3ccccc3)cc2)CC(C)(C)C1 (relative stereo) [Example 18, (CIS) 3,3,5-TRIMETHYLCYCLOHEXYL 2-(4-PHENYLACETYLPHENOXY)-2-METHYLPROPIONATE] |  |  |  |  |  | 
 | CC(=O)c1ccc(OC(C)(C)C(=O)O[C@@H]2C[C@@H](C)CC(C)(C)C2)cc1 (relative stereo) [Example 15, (TRAMS) 3,3,5-TRIMETHYLCYCLOHEXYL 2-(4-ACETYLPHENOXY)-2-METHYLPROPIONATE] | 1.7 ± 0.1 | 1.7 ± 1.2 | 2.8 ± 0.2 | 3.0 ± 0.3 |  | 
 | CCC(=O)c1ccc(OC(C)(C)C(=O)O[C@H]2C[C@H](C)CC(C)(C)C2)cc1 (relative stereo) [Example 9, (TRANS) 3,3,5-TRIMETHYLCYCLOHEXYL 2-(4-PROPIONYLPHENOXY)-2-METHYLPROPIONATE] | 2.0 ± 0.6 | 1.6 ± 0.3 | 2.5 ± 0.6 | 5.0 ± 0.2 |  | 
 | C[C@@H]1C[C@H](OC(=O)C(C)(C)Oc2ccc(-c3ccccc3)cc2)CC(C)(C)C1 (relative stereo) [Example 8, (CIS) 3,3,5-TRIMETHYLCYCLOHEXYL 2-(4-PHENYLPHENOXY)-2-METHYLPROPIONATE] | 1.1 ± 0.2 | 6.0 ± 4 | 3.0 ± 0.2 | 3.6 ± 0.2 |  | 
0.0376 | CCC(=O)c1ccc(OC(C)(C)C(=O)O[C@H]2C[C@@H](C)CC(C)(C)C2)cc1 (relative stereo) [Example 10, (CIS) 3,3,5-TRIMETHYLCYCLOHEXYL 2-(4-PROPIONYLPHENOXY)-2-METHYLPROPIONATE] |  |  |  |  |  | 
 | C[C@H]1C[C@H](OC(=O)C(C)(C)Oc2ccc(C(=O)c3ccc(Cl)cc3)cc2)CC(C)(C)C1 (relative stereo) [Example 1, (TRANS) 3,3,5-TRIMETHYLCYCLOHEXYL 2-(4-(4-CHLOROBENZOYL)PHENOXY)-2-METHYLPROPIONATE] | 1.5 ± 0.4 | 0.8 ± 0.1 | 3.5 ± 1.4 | 3.6 ± 0.5 | 4.44 | 74
0.0357 | CC(=O)c1cccc(OC(C)(C)C(=O)O[C@H]2C[C@H](C)CC(C)(C)C2)c1 (relative stereo) [Example 13, (TRANS) 3,3,5-TRIMETHYLCYCLOHEXYL 2-(3-ACETYLPHENOXY)-2-METHYLPROPIONATE] |  |  |  |  |  | 
 | Cc1ccc(C)c(OCCCC(C)(C)C(=O)O[C@H]2C[C@H](C)CC(C)(C)C2)c1 (relative stereo) [Example 6, (TRANS) 3,3,5-TRIMETHYLCYCLOHEXYL 2-(3-(2,5-DIMETHYLPHENOXY)PROPYL)-2-METHYLPROPIONATE] | 0.9 ± 0.3 | 1.7 ± 0.3 | 2.0 ± 0.2 | 8.0 ± 3 | 6.01 | 65
0.0405 | C[C@@H]1C[C@H](OC(=O)C(C)(C)CCCCOc2ccccc2)CC(C)(C)C1 (relative stereo) [Example 20, (CIS) 3,3,5-TRIMETHYLCYCLOHEXYL 2-(4-PHENOXYBUTYL)-2-METHYLPROPIONATE] |  |  |  |  |  | 
0.0459 | CC(=O)c1ccc(OC(C)(C)C(=O)O[C@H]2C[C@@H](C)CC(C)(C)C2)cc1 (relative stereo) [Example 16, (CIS) 3,3,5-TRIMETHYLCYCLOHEXYL 2-(4-ACETYLPHENOXY)-2-METHYLPROPIONATE] |  |  |  |  |  | 
0.039 | C[C@H]1C[C@H](OC(=O)C(C)(C)Oc2ccc(CCNC(=O)c3ccc(Cl)cc3)cc2)CC(C)(C)C1 (relative stereo) [Example 3, (TRANS) 3,3,5-TRIMETHYLCYCLOHEXYL 2-(4-(2-(4-CHLOROBENZAMIDO)ETHYL)PHENOXY)-2-METHYLPROPIONATE] | 1.6 ± 0.4 | 1.2 ± 0.4 | 1.2 ± 0.7 | 3.8 ± 0.5 |  | 
0.0219 | CC(=O)c1ccc(OC(C)(C)C(=O)O[C@H]2C[C@@H](C)CC(C)(C)C2)c(Cl)c1 (relative stereo) [Example 12, (CIS) 3,3,5-TRIMETHYLCYCLOHEXYL 2-(4-ACETYL-2-CHLOROPHENOXY)-2-METHYLPROPIONATE] |  |  |  |  |  | 
 | CC(=O)c1ccc(OC(C)(C)C(=O)O[C@H]2C[C@H](C)CC(C)(C)C2)c(Cl)c1 (relative stereo) [Example 11, (TRANS) 3,3,5-TRIMETHYLCYCLOHEXYL 2-(4-ACETYL-2-CHLOROPHENOXY)-2-METHYLPROPIONATE] | 1.0 ± 0.1 | 1.0 ± 0.1 | 1.8 ± 0.4 | 11 ± 5 |  | 
0.0302 | Cc1cc(C)cc(OCCCCC(C)(C)C(=O)O[C@H]2C[C@@H](C)CC(C)(C)C2)c1 (relative stereo) [Example 22, (CIS) 3,3,5-TRIMETHYLCYCLOHEXYL 2-(4-(3,5-DIMETHYLPHENOXY)BUTYL)-2-METHYLPROPIONATE] |  |  |  |  |  | 
 | CC(C)OC(=O)C(C)(C)Oc1ccc(C(=O)c2ccc(Cl)cc2)cc1 [Fenofibrate, isopropyl 4-(4-chlorobenzoyl)phenoxyisobutyrate, reference compound] |  |  |  |  | 4.16 | 
